Test results from patent US5054434A, “Suppression of ammonia odors from animal wastes” (W. R. Grace & Co.-Conn., priority 1989, dated 1991).
Where a name gives a salt, the structure may show the parent alone.

Experiments:
[1] = cited from earlier work
[2] = smell of the acid itself; cited from earlier work
Bacillus pasteurii = test: Ammonia accumulation from synthetic urine on rice hulls with live urease-producing bacteria; conditions: 24 mg acid, 6 g rice hulls, 24 g synthetic urine, 37.5° C., after one day
jack bean urease = jack bean urease (Canavalia ensiformis, UniProt P07374); test: Ammonia accumulation from synthetic urine with urease on treated bedding; assay type: biochemical; conditions: for ammonia smell in capped bottle: 12 mg acid, 15 g synthetic urine with 200 units urease, 37.5° C., after 4 hr; for control of accumulation of ammonia: procedure of Example 1
Chain of jack bean urease (P07374 whole entry, looked up): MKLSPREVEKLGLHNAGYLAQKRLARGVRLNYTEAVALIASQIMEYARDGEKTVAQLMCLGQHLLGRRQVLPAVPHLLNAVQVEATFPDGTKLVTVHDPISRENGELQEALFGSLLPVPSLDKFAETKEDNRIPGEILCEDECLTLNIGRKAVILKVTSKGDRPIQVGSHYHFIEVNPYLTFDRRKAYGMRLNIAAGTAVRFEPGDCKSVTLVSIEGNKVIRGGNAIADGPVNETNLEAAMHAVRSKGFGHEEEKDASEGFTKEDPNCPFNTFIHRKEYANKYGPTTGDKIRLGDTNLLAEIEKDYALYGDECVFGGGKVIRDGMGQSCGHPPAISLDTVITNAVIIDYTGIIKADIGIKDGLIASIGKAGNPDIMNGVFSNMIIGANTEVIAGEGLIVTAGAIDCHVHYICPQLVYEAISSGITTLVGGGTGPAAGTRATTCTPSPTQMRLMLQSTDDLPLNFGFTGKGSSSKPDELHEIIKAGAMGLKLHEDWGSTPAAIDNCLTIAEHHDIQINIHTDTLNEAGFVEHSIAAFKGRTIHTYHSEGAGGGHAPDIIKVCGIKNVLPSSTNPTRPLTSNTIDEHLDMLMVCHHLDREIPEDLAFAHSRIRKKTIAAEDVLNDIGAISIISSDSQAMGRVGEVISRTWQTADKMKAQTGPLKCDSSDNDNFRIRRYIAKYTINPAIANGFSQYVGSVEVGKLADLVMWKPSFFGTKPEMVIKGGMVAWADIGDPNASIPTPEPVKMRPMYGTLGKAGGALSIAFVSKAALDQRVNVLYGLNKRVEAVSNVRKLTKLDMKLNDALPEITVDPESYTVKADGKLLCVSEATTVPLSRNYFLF
Protocol: To test the effectiveness of the acid the following procedure has been used. A synthetic urine is made by combining 2.3 wt % urea and 1.1 wt % sodium chloride. To mimic the presence of bacteria, 200 units of jack bean urease is added to the synthetic urine. Jack bean urease is a readily available form of urease which is suitable for use in this context because useases from most natural sources appear to act similarly. See "Jack Bean Urease (EC 3.5.1.5).8. […] Chem. Soc. 1986, 108, 7124-7125.
This urine is then poured over a sample of bedding or other absorbent material to which the acid has been applied. The treated sample is covered so that any gases produced may accumulate. The presence of ammonia is tested for by using Draeger tubes.
Two 8 oz. polyethylene bottles were charged with 15 g of rice hulls and 15 g of sawdust, respectively. […] The bottles were capped, and incubated in a shaker bath at 37.5° C. […] By contrast, identical bottles not containing citric acid smelled strongly of ammonia.

rabbit = conditions: cited from earlier work
urease = conditions: literature statement (Mobley and Hausinger 1989); cited from earlier work

C/C=C/C=C/C(=O)O [Sorbic, sorbic]
First pKa [1]: 4.8
Smell [2]: None

O=C(O)CC(O)(CC(=O)O)C(=O)O [Citric, citric acid]
ammonia in bottle measured using a Draeger tube (Bacillus pasteurii): less than 5 ppm
ammonia smell in capped bottle (jack bean urease; 15 g rice hulls): no ammonia smell could be detected
ammonia smell in capped bottle (jack bean urease; 15 g sawdust): no ammonia smell could be detected
Smell [2]: None

O=C(O)CC(O)C(=O)O (stereo not drawn) [Malic, malic acid]
Oral LD50 (rabbit): 5,000 mg/kg
control of accumulation of ammonia (jack bean urease; 12 mg): sufficient to prevent the accumulation of noticeable amounts of ammonia
Smell [2]: None

CC(=O)O [acetic acid, reference compound]
Smell [2]: strong and unpleasant smell

O=C(O)/C=C/C(=O)O [Fumaric, fumaric acid]
control of accumulation of ammonia (jack bean urease; 6 mg): sufficient to prevent the accumulation of noticeable amounts of ammonia

O=C(O)CCC(=O)O [Succinic, succinic]
Smell [2]: None

O=C(O)CC(O)(CC(=O)O)C(=O)O [sodium citrate, reference compound]
control of accumulation of ammonia (jack bean urease; 24 mg): not to control the accumulation of ammonia

O=C(O)CC(=O)O [Malonic, malonic]
Smell [2]: None

phosphoric acid
inhibition of urease (urease): inhibitor of urease
control of accumulation of ammonia (jack bean urease; 6 mg): sufficient to prevent the accumulation of noticeable amounts of ammonia

OB(O)O [boric acid, reference compound]
First pKa [1]: 9.1
control of accumulation of ammonia (jack bean urease; 36 mg): not control the accumulation of ammonia
